Laboratory results published in US20230000996A1, “RAPAFUCIN DERIVATIVE COMPOUNDS AND METHODS OF USE THEREOF” (The Johns Hopkins University, priority 2019, published 2023).

Test: Nucleoside uptake, single concentration assay (Rel.Uptake); cell line indicated in each table
Assay type: cell-based
Conditions: 293T cells, response relative to DMSO
Description: Nucleoside Uptake Assay (uptake). Nuceloside uptake assays were performed with using 3H-Thymidine as described in Guo et al. (2018) Nat. Chem. 11:254-63. Specific cell lines are indicated in each assay and cultured in complete growth media. Activity is scored according to the IC50 values relative to DMSO control. “Low” indicates an IC50 greater than 600 nM, “Medium” indicates an IC50 between 300 nM and 600 nM “High” indicates an IC50 less than 300 nM. “Rel.Uptake” refers to uptake activity characterization relative to a single concentration assay. “Low” indicates a response greater than 0.6 times the activity relative to DMSO, “Medium” indicates a response between 0.6 and 0.3 times the activity relative to DMSO, “High” indicates a response less than 0.3 times the activity relative to DMSO.

[1] = nucleoside uptake, single concentration assay

Row | Compound | Rel. Uptake, 293T [1] | Rel. Uptake, 293T (single concentration)
1 | CCCC[C@H]1C(=O)N[C@@H](Cc2ccc3ccccc3c2)C(=O)N(C)[C@@H](COC(C)(C)C)C(=O)NCC(=O)N(C)CCC=CC(=O)OCC(C)(C)C(=O)C(=O)N2CCCC[C@H]2C(=O)O[C@H](CCc2ccc(OC)c(OC)c2)c2cncc(c2)OCC(=O)N1C [Compound 1565] | low | 
2 | COc1ccc(CC[C@H]2OC(=O)[C@@H]3CCCCN3C(=O)C(=O)C(C)(C)COC(=O)C=CCCN(C)C(=O)[C@H](CC(C)C)N(C)C(=O)[C@H]3CCCN3C(=O)[C@H](Cc3ccc(CNC(=O)Cc4ccccc4)cc3)NC(=O)[C@H](c3ccccc3)NC(=O)CCC(=O)Nc3cccc2c3)cc1OC [Compound 1586] | Med | 
3 | COc1ccc(CC[C@H]2OC(=O)[C@@H]3CCCCN3C(=O)C(=O)C(C)(C)COC(=O)C=CCCN(C)C(=O)[C@@H](Cc3ccccc3)NC(=O)CN(C)C(=O)[C@@H](Cc3ccccc3)NC(=O)[C@H](Cc3ccc(O)cc3)N(C)C(=O)COc3cccc2c3F)cc1OC [Compound 1579] | medium | 
4 | COc1ccc(CC[C@H]2OC(=O)[C@@H]3CCCCN3C(=O)C(=O)C(C)(C)COC(=O)C=CCCN(C)C(=O)[C@H](CC(C)C)N(C)C(=O)[C@H]3CCCN3C(=O)[C@H](CC(=O)OC(C)(C)C)N(C)C(=O)C(c3ccccc3)NC(=O)CCC(=O)Nc3cccc2c3)cc1OC (some centres unmarked) [Compound 1066] |  | high
5 | COc1cc(CC[C@H]2OC(=O)[C@@H]3CCCCN3C(=O)C(=O)C(C)(C)COC(=O)C=CCCN(C)C(=O)[C@@H](Cc3ccccc3)NC(=O)CN(C)C(=O)[C@@H](Cc3ccccc3)NC(=O)[C@H](Cc3ccc(O)cc3)N(C)C(=O)COc3cccc2c3)cc(O)c1OC [Compound 1567] | medium | 
6 | COc1ccc(CC[C@H]2OC(=O)[C@@H]3CCCCN3C(=O)C(=O)C(C)(C)COC(=O)C=CCCN(C)C(=O)[C@H](CC(C)C)N(C)C(=O)[C@H]3CCCN3C(=O)[C@H](Cc3cccc(NC(C)=O)c3)NC(=O)[C@H](c3ccccc3)NC(=O)CCC(=O)Nc3cccc2c3)cc1OC [Compound 1588] | High (“High” indicates a response less than 0.3 times the activity relative to DMSO) | 
7 | C=C1NCC(=O)N(C)CC/C=C\C(=O)OCC(C)(C)C(=O)C(=O)N2CCCC[C@H]2C(=O)O[C@H](CCc2ccc(OC)c(OC)c2)c2cccc(c2)NC(=O)CCC(=O)N(C)[C@@H](CC(C)C)C(=O)N[C@H](Cc2ccccc2)C(=O)N(C)[C@H]1[C@@H](C)CC [Compound 1592] | Low (“Low” indicates a response greater than 0.6 times the activity relative to DMSO) | 
8 | COc1ccc(CC[C@H]2OC(=O)[C@@H]3CN(C(=O)OCC4c5ccccc5-c5ccccc54)CCN3C(=O)C(=O)C(C)(C)COC(=O)C=CCCN(C)C(=O)[C@@H](Cc3ccccc3)NC(=O)CN(C)C(=O)[C@@H](Cc3ccccc3)NC(=O)[C@H](Cc3ccc(O)cc3)N(C)C(=O)COc3cccc2c3)cc1OC [Compound 1572] | low | 
9 | COc1ccc(CC[C@H]2OC(=O)[C@@H]3CCCCN3C(=O)C(=O)C(C)(C)CNC(=O)C=CCCN(C)C(=O)[C@H](CC(C)C)N(C)C(=O)[C@H]3CCCN3C(=O)[C@H](Cc3ccccc3)N(C)C(=O)C(c3ccccc3)NC(=O)CCC(=O)Nc3cccc2c3)cc1OC (some centres unmarked) [Compound 1555] | high | 
10 | COc1ccc(CC[C@H]2OC(=O)[C@@H]3CCCCN3C(=O)C(=O)C(C)(C)COC(=O)C=CCCN(C)C(=O)[C@@H](Cc3ccccc3)NC(=O)CN(C)C(=O)[C@@H](Cc3ccccc3)NC(=O)[C@H](Cc3ccc(O)cc3)N(C)C(=O)COc3cc(F)cc2c3)cc1OC [Compound 1576] | medium | 
11 | COc1ccc(CC[C@H]2OC(=O)[C@@H]3CCCCN3C(=O)C(=O)C(C)(C)COC(=O)C=CCCN(C)C(=O)[C@@H]3CCCN3C(=O)[C@H](COC(C)(C)C)N(C)C(=O)[C@@H](c3ccccc3)NC(=O)[C@H](C)N(C)C(=O)COc3cc(F)cc2c3)cc1OC [Compound 1595] | Low (“Low” indicates a response greater than 0.6 times the activity relative to DMSO) | 
